In PMC5218480 (PLoS ONE, 2017):

Tested on: MV-4-11 cells
Experiment: Gene expression microarray analysis (Affymetrix PrimeView) and GSEA
Assay type: cell-based, human
Parameters: RFU PODN (11730768_x_at) / Fold change /veh PODN (11730768_x_at) / RFU LINC00158 (11744669_a_at) / Fold change /veh LINC00158 (11744669_a_at) / RFU DUSP10 (11751237_a_at) / Fold change /veh DUSP10 (11751237_a_at) / RFU ID3 (11757404_x_at) / Fold change /veh ID3 (11757404_x_at) / RFU PLEKHG5 (11737974_s_at) / Fold change /veh PLEKHG5 (11737974_s_at) / RFU LRRC4B (11730491_at) / Fold change /veh LRRC4B (11730491_at) / RFU GIMAP4 (11747438_a_at) / Fold change /veh GIMAP4 (11747438_a_at) / RFU KRT8 (11758183_x_at) / Fold change /veh KRT8 (11758183_x_at) / RFU CNN1 (11734310_a_at) / Fold change /veh CNN1 (11734310_a_at) / RFU VPS37D (11726825_at) / Fold change /veh VPS37D (11726825_at) / RFU C10orf10 (11716522_x_at) / Fold change /veh C10orf10 (11716522_x_at) / RFU KIR2DL2 /// KIR2DL4 /// KIR2DL5A /// KIR2DL5B /// KIR2DS1 /// KIR2DS2 /// KIR2DS3 /// KIR2DS4 /// KIR3DL3 /// KIR3DL3 /// KIR3DS1 (11738374_at) / Fold change /veh KIR2DL2 /// KIR2DL4 /// KIR2DL5A /// KIR2DL5B /// KIR2DS1 /// KIR2DS2 /// KIR2DS3 /// KIR2DS4 /// KIR3DL3 /// KIR3DL3 /// KIR3DS1 (11738374_at) / RFU C1QL1 (11718748_at) / Fold change /veh C1QL1 (11718748_at) / RFU TMPRSS4 (11747572_a_at) / Fold change /veh TMPRSS4 (11747572_a_at) / RFU HAMP (11756126_x_at) / Fold change /veh HAMP (11756126_x_at) / RFU RNFT2 (11725882_a_at) / Fold change /veh RNFT2 (11725882_a_at) / RFU NR4A2 (11747474_a_at) / Fold change /veh NR4A2 (11747474_a_at) / RFU ABCC12 (11746883_a_at) / Fold change /veh ABCC12 (11746883_a_at) / RFU TMEM136 (11760407_x_at) / Fold change /veh TMEM136 (11760407_x_at) / RFU CLDN22 /// WWC2 (11732394_at) / Fold change /veh CLDN22 /// WWC2 (11732394_at) / RFU HLA-DPB1 (11760878_x_at) / Fold change /veh HLA-DPB1 (11760878_x_at) / RFU SPINT1 (11716480_a_at) / Fold change /veh SPINT1 (11716480_a_at) / RFU GAP43 (11754022_s_at) / Fold change /veh GAP43 (11754022_s_at) / RFU A4GNT (11735810_at) / Fold change /veh A4GNT (11735810_at) / RFU PRB3 (11715151_x_at) / Fold change /veh PRB3 (11715151_x_at) / RFU TUBB4B (11761932_at) / Fold change /veh TUBB4B (11761932_at) / RFU CAPN14 (11732068_a_at) / Fold change /veh CAPN14 (11732068_a_at) / RFU TMCC2 (11721928_a_at) / Fold change /veh TMCC2 (11721928_a_at) / RFU IRGQ (11745062_a_at) / Fold change /veh IRGQ (11745062_a_at) / RFU FAM174B (11720279_a_at) / Fold change /veh FAM174B (11720279_a_at) / RFU TMPRSS4 (11748680_a_at) / Fold change /veh TMPRSS4 (11748680_a_at) / RFU FAM212B (11763350_a_at) / Fold change /veh FAM212B (11763350_a_at) / RFU PLEKHG5 (11743358_a_at) / Fold change /veh PLEKHG5 (11743358_a_at) / RFU ZSCAN30 (11745921_a_at) / Fold change /veh ZSCAN30 (11745921_a_at) / RFU CMKLR1 (11741424_a_at) / Fold change /veh CMKLR1 (11741424_a_at) / RFU LOC101060620 /// MAPK8IP1 (11723275_at) / Fold change /veh LOC101060620 /// MAPK8IP1 (11723275_at) / RFU SPTSSB (11747773_x_at) / Fold change /veh SPTSSB (11747773_x_at) / RFU PRSS12 (11739890_at) / Fold change /veh PRSS12 (11739890_at) / RFU BIN1 (11741810_x_at) / Fold change /veh BIN1 (11741810_x_at) / RFU WNT11 (11732464_a_at) / Fold change /veh WNT11 (11732464_a_at) / RFU C10orf10 (11716521_a_at) / Fold change /veh C10orf10 (11716521_a_at) / RFU C5orf56 (11738089_at) / Fold change /veh C5orf56 (11738089_at) / RFU CYB561 (11721691_x_at) / Fold change /veh CYB561 (11721691_x_at) / RFU ANKRD19P (11752326_a_at) / Fold change /veh ANKRD19P (11752326_a_at) / RFU OR2T12 /// OR2T33 /// OR2T8 (11738714_s_at) / Fold change /veh OR2T12 /// OR2T33 /// OR2T8 (11738714_s_at) / RFU VCAN (11748164_a_at) / Fold change /veh VCAN (11748164_a_at) / RFU JSRP1 (11732532_at) / Fold change /veh JSRP1 (11732532_at) / RFU KRTAP10-11 (11738290_x_at) / Fold change /veh KRTAP10-11 (11738290_x_at) / RFU MYO3A (11730013_a_at) / Fold change /veh MYO3A (11730013_a_at) / RFU EBF3 (11725865_a_at) / Fold change /veh EBF3 (11725865_a_at) / RFU CAMK2N1 (11719241_x_at) / Fold change /veh CAMK2N1 (11719241_x_at) / RFU C5orf56 (11738088_a_at) / Fold change /veh C5orf56 (11738088_a_at) / RFU OLFML3 (11715873_a_at) / Fold change /veh OLFML3 (11715873_a_at) / RFU LOC100653217 /// NTM (11731650_a_at) / Fold change /veh LOC100653217 /// NTM (11731650_a_at) / RFU MAPK11 (11762145_a_at) / Fold change /veh MAPK11 (11762145_a_at) / RFU FIZ1 (11724087_x_at) / Fold change /veh FIZ1 (11724087_x_at) / RFU OASL (11726364_x_at) / Fold change /veh OASL (11726364_x_at) / RFU SOX15 (11748057_x_at) / Fold change /veh SOX15 (11748057_x_at) / RFU CD79A (11719716_a_at) / Fold change /veh CD79A (11719716_a_at) / RFU HIST1H1D (11736915_at) / Fold change /veh HIST1H1D (11736915_at) / RFU CASKIN2 (11723855_a_at) / Fold change /veh CASKIN2 (11723855_a_at) / RFU LOC730098 (11760151_x_at) / Fold change /veh LOC730098 (11760151_x_at) / RFU OR4N2 (11742367_at) / Fold change /veh OR4N2 (11742367_at) / RFU PRRT2 (11749266_a_at) / Fold change /veh PRRT2 (11749266_a_at) / RFU SNX32 (11753110_a_at) / Fold change /veh SNX32 (11753110_a_at) / RFU CDHR5 (11726645_a_at) / Fold change /veh CDHR5 (11726645_a_at) / RFU RCAN1 (11760418_a_at) / Fold change /veh RCAN1 (11760418_a_at) / RFU FAM167A (11723789_a_at) / Fold change /veh FAM167A (11723789_a_at) / RFU FAM26E (11764081_at) / Fold change /veh FAM26E (11764081_at) / RFU ISYNA1 (11749810_s_at) / Fold change /veh ISYNA1 (11749810_s_at) / RFU ACY1 (11761880_at) / Fold change /veh ACY1 (11761880_at) / RFU 11764098_at / Fold change /veh 11764098_at / RFU SAMD14 (11745864_x_at) / Fold change /veh SAMD14 (11745864_x_at) / RFU NPB (11741838_a_at) / Fold change /veh NPB (11741838_a_at) / RFU TMPRSS6 (11731388_a_at) / Fold change /veh TMPRSS6 (11731388_a_at) / RFU KRTAP10-2 (11738614_at) / Fold change /veh KRTAP10-2 (11738614_at) / RFU ARHGAP8 /// PRR5-ARHGAP8 (11727945_x_at) / Fold change /veh ARHGAP8 /// PRR5-ARHGAP8 (11727945_x_at) / RFU KRTAP5-7 /// NADSYN1 (11734609_at) / Fold change /veh KRTAP5-7 /// NADSYN1 (11734609_at) / RFU RASL12 (11751679_a_at) / Fold change /veh RASL12 (11751679_a_at) / RFU CDKN2B (11736163_a_at) / Fold change /veh CDKN2B (11736163_a_at) / RFU PRF1 (11729649_at) / Fold change /veh PRF1 (11729649_at) / RFU, ZNF638 /// ZNF638-IT1 / Fold change vs veh, ZNF638 /// ZNF638-IT1 / RFU, PANK3 / Fold change vs veh, PANK3 / RFU, SH3YL1 / Fold change vs veh, SH3YL1 / RFU, ZEB2 / Fold change vs veh, ZEB2 / RFU, NRIP1 / Fold change vs veh, NRIP1 / RFU, PTTG1IP / Fold change vs veh, PTTG1IP / RFU, CAPN2 / Fold change vs veh, CAPN2 / RFU, MED14 / Fold change vs veh, MED14 / RFU, SNORA58 / Fold change vs veh, SNORA58 / RFU, C1orf63 / Fold change vs veh, C1orf63 / RFU, LRRFIP1 / Fold change vs veh, LRRFIP1 / RFU, NDUFAF7 / Fold change vs veh, NDUFAF7 / RFU, SLC12A2 / Fold change vs veh, SLC12A2 / RFU, IBTK / Fold change vs veh, IBTK / RFU, ESF1 / Fold change vs veh, ESF1 / Fold change vs veh, TMEM50B / RFU, TAOK1 / Fold change vs veh, TAOK1 / RFU, ACBD3 / Fold change vs veh, ACBD3 / RFU, TMA16 / Fold change vs veh, TMA16 / RFU, RWDD3 / Fold change vs veh, RWDD3 / RFU, BCAT1 / Fold change vs veh, BCAT1 / RFU, EDEM3 / Fold change vs veh, EDEM3 / RFU, TMEM33 / Fold change vs veh, TMEM33 / RFU, WDR75 / Fold change vs veh, WDR75 / RFU, AHCTF1 / Fold change vs veh, AHCTF1 / RFU, TFRC / Fold change vs veh, TFRC / RFU, ZDHHC17 / Fold change vs veh, ZDHHC17 / RFU, NOM1 / Fold change vs veh, NOM1 / RFU, ARL8B / Fold change vs veh, ARL8B / RFU, ZBTB11 / Fold change vs veh, ZBTB11 / RFU, TAMM41 / Fold change vs veh, TAMM41 / RFU, KIAA1704 /// LOC100996395 / Fold change vs veh, KIAA1704 /// LOC100996395 / RFU, ING1 / Fold change vs veh, ING1 / RFU, TRMT61B / Fold change vs veh, TRMT61B / RFU, FUBP3 / Fold change vs veh, FUBP3 / RFU, TP53 / Fold change vs veh, TP53 / RFU, TNKS2 / Fold change vs veh, TNKS2 / RFU, ZFP14 / Fold change vs veh, ZFP14 / RFU, ACTR2 / Fold change vs veh, ACTR2 / RFU, PPP3R1 / Fold change vs veh, PPP3R1 / RFU, PIK3R1 / Fold change vs veh, PIK3R1 / RFU, HNRNPA1 / Fold change vs veh, HNRNPA1 / RFU, RNF170 / Fold change vs veh, RNF170 / RFU, ZNF28 / Fold change vs veh, ZNF28 / RFU, RNGTT / Fold change vs veh, RNGTT / RFU, OGT / Fold change vs veh, OGT / RFU, BRD1 / Fold change vs veh, BRD1 / RFU, MARS / Fold change vs veh, MARS / RFU, ZNF655 / Fold change vs veh, ZNF655 / RFU, FAHD1 / Fold change vs veh, FAHD1 / RFU, BDP1 / Fold change vs veh, BDP1 / RFU, LRRCC1 / Fold change vs veh, LRRCC1 / RFU, ARID1A / Fold change vs veh, ARID1A / RFU, ZNF146 / Fold change vs veh, ZNF146 / RFU, ZNF330 / Fold change vs veh, ZNF330 / RFU, GPN3 / Fold change vs veh, GPN3 / RFU, C9orf123 / Fold change vs veh, C9orf123 / RFU, N4BP2L2 / Fold change vs veh, N4BP2L2 / RFU, ARFIP1 / Fold change vs veh, ARFIP1 / RFU, FAM179B / Fold change vs veh, FAM179B / RFU, BCL10 / Fold change vs veh, BCL10 / RFU, UHRF1BP1L / Fold change vs veh, UHRF1BP1L / RFU, BET1 / Fold change vs veh, BET1 / RFU, CNOT2 / Fold change vs veh, CNOT2 / RFU, ZNF268 / Fold change vs veh, ZNF268 / Fold change vs veh, ZNF507 / RFU, DGCR2 / Fold change vs veh, DGCR2 / RFU, WDSUB1 / Fold change vs veh, WDSUB1 / Fold change vs veh, HSP90B1 /// MIR3652 / RFU, ADSS / Fold change vs veh, ADSS / RFU, GK / Fold change vs veh, GK / RFU, ZNF148 / Fold change vs veh, ZNF148 / RFU, TAF9 / Fold change vs veh, TAF9 / RFU, SLC1A5 / Fold change vs veh, SLC1A5 / RFU, SLMO2 / Fold change vs veh, SLMO2 / RFU, ABCC4 / Fold change vs veh, ABCC4 / RFU, LOC101060439 /// RAP1B / Fold change vs veh, LOC101060439 /// RAP1B / RFU, RFX7 / Fold change vs veh, RFX7 / RFU, GTPBP10 / Fold change vs veh, GTPBP10 / RFU, CNEP1R1 / Fold change vs veh, CNEP1R1 / RFU, BIVM-ERCC5 /// ERCC5 / Fold change vs veh, BIVM-ERCC5 /// ERCC5 / RFU, ILF3 / Fold change vs veh, ILF3 / RFU 11762660_at / Fold change /veh 11762660_at / RFU VCAN (11757783_s_at) / Fold change /veh VCAN (11757783_s_at) / RFU DDX43 (11728927_at) / Fold change /veh DDX43 (11728927_at) / RFU KRT8 (11758188_x_at) / Fold change /veh KRT8 (11758188_x_at) / RFU NKD1 (11759106_at) / Fold change /veh NKD1 (11759106_at) / RFU SRD5A1 (11742802_a_at) / Fold change /veh SRD5A1 (11742802_a_at) / RFU TPSAB1 /// TPSB2 (11721975_s_at) / Fold change /veh TPSAB1 /// TPSB2 (11721975_s_at) / RFU GSTM3 (11746129_a_at) / Fold change /veh GSTM3 (11746129_a_at) / RFU IL23R (11737362_x_at) / Fold change /veh IL23R (11737362_x_at) / RFU TMEM51 (11727254_a_at) / Fold change /veh TMEM51 (11727254_a_at) / RFU PIWIL2 (11732686_x_at) / Fold change /veh PIWIL2 (11732686_x_at) / RFU ORM1 (11744905_x_at) / Fold change /veh ORM1 (11744905_x_at) / RFU CCDC152 (11743942_at) / Fold change /veh CCDC152 (11743942_at) / RFU ECM1 (11717891_a_at) / Fold change /veh ECM1 (11717891_a_at) / RFU IL23R (11748794_a_at) / Fold change /veh IL23R (11748794_a_at) / RFU TNFAIP8L3 (11732012_x_at) / Fold change /veh TNFAIP8L3 (11732012_x_at) / RFU MBOAT4 (11741988_at) / Fold change /veh MBOAT4 (11741988_at) / RFU 11764193_at / Fold change /veh 11764193_at / RFU TMEM53 (11763286_at) / Fold change /veh TMEM53 (11763286_at) / RFU MAGEB2 (11727129_at) / Fold change /veh MAGEB2 (11727129_at) / RFU TMEM200A (11744735_a_at) / Fold change /veh TMEM200A (11744735_a_at) / RFU CCDC152 (11751479_a_at) / Fold change /veh CCDC152 (11751479_a_at) / RFU FAM211A (11726209_a_at) / Fold change /veh FAM211A (11726209_a_at) / RFU RGS16 (11746705_a_at) / Fold change /veh RGS16 (11746705_a_at) / RFU VCAN (11755009_s_at) / Fold change /veh VCAN (11755009_s_at) / RFU RHOB (11743442_s_at) / Fold change /veh RHOB (11743442_s_at) / RFU RGS16 (11720943_a_at) / Fold change /veh RGS16 (11720943_a_at) / RFU RGS16 (11720944_at) / Fold change /veh RGS16 (11720944_at) / RFU, VPS4B / Fold change vs veh, VPS4B / RFU, CREB1 / Fold change vs veh, CREB1 / RFU, DNAJC13 / Fold change vs veh, DNAJC13 / RFU, GNAQ / Fold change vs veh, GNAQ / RFU, CDK5R1 / Fold change vs veh, CDK5R1 / RFU, ZRANB3 / Fold change vs veh, ZRANB3 / RFU, CUL4A / Fold change vs veh, CUL4A / RFU, CCNY / Fold change vs veh, CCNY / RFU, UFL1 / Fold change vs veh, UFL1 / RFU, COG3 / Fold change vs veh, COG3 / RFU, DIAPH2 / Fold change vs veh, DIAPH2 / RFU, SKA2 / Fold change vs veh, SKA2 / RFU, AFF3 / Fold change vs veh, AFF3 / RFU, LMF1 / Fold change vs veh, LMF1 / RFU, IPO11 / Fold change vs veh, IPO11 / RFU, DFFB / Fold change vs veh, DFFB / RFU, FOXP1 / Fold change vs veh, FOXP1 / RFU, CARD8 / Fold change vs veh, CARD8 / RFU, STRN3 / Fold change vs veh, STRN3 / RFU, ADK / Fold change vs veh, ADK / RFU, RASSF2 / Fold change vs veh, RASSF2 / RFU, WIPF1 / Fold change vs veh, WIPF1 / RFU, LARP1B / Fold change vs veh, LARP1B / RFU, RASA1 / Fold change vs veh, RASA1 / RFU, RB1 / Fold change vs veh, RB1 / RFU, PPFIA1 / Fold change vs veh, PPFIA1 / RFU, MAT2A / Fold change vs veh, MAT2A / RFU, CCT5 / Fold change vs veh, CCT5 / RFU, WDR92 / Fold change vs veh, WDR92 / RFU, CUX1 / Fold change vs veh, CUX1 / RFU, TTC7A / Fold change vs veh, TTC7A / RFU, TMEM135 / Fold change vs veh, TMEM135 / RFU, DEPTOR / Fold change vs veh, DEPTOR / RFU, CPM / Fold change vs veh, CPM / RFU, DNAJB6 / Fold change vs veh, DNAJB6 / RFU, CACNA2D3 / Fold change vs veh, CACNA2D3 / RFU, DTX4 / Fold change vs veh, DTX4 / RFU, TFCP2 / Fold change vs veh, TFCP2 / RFU, GMCL1 /// GMCL1P1 / Fold change vs veh, GMCL1 /// GMCL1P1 / RFU, AEBP2 / Fold change vs veh, AEBP2 / RFU, SNHG1 /// SNORD22 /// SNORD25 /// SNORD26 /// SNORD27 /// SNORD28 /// SNORD29 /// SNORD31 / Fold change vs veh, SNHG1 /// SNORD22 /// SNORD25 /// SNORD26 /// SNORD27 /// SNORD28 /// SNORD29 /// SNORD31 / Fold change (Aza/veh), C12orf56 (ProbeSet 11735607_a_at) / Fold change (ACY-1035/veh), C12orf56 (ProbeSet 11735607_a_at) / Fold change (Aza/veh), FGFR1OP (ProbeSet 11751329_s_at) / Fold change (ACY-1035/veh), FGFR1OP (ProbeSet 11751329_s_at) / Fold change (Aza/veh), VPS36 (ProbeSet 11739960_a_at) / Fold change (ACY-1035/veh), VPS36 (ProbeSet 11739960_a_at) / RFU SYPL1 (11715823_x_at) / Fold change /veh SYPL1 (11715823_x_at) / RFU IGFBP7 (11715501_s_at) / Fold change /veh IGFBP7 (11715501_s_at) / RFU REEP3 (11722064_at) / Fold change /veh REEP3 (11722064_at) / RFU IGLL1 (11728026_x_at) / Fold change /veh IGLL1 (11728026_x_at): dose or concentration left out as unconfirmed
Settings: MV-4-11 cells, 48 hours

With `Nc1ccc(-c2cccs2)cc1NC(=O)c1ccc2c(c1)cc(C1CC1)n2CCN1CCOCC1` [ACY-1035] the “Fold change /veh TMPRSS6 (11731388_a_at)” value was 1.10.
